Target: T1, KDM4A (Homo sapiens, UniProt O75164)
T1 construct: N-terminal His-tagged KDM4A^1-350 was purchased from BPS Biosciences; His (N); purchased BPS Biosciences
T1 sequence (O75164 1-350): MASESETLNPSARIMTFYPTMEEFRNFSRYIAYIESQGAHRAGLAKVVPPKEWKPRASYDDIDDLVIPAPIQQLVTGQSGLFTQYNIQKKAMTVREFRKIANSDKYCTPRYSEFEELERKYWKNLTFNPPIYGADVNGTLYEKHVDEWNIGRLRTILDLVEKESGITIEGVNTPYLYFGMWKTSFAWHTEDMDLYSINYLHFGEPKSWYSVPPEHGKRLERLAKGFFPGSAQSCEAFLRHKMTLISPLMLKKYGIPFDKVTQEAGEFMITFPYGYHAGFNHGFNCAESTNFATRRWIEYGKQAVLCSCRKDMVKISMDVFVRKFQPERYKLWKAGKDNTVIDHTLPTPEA
Assay: KDM4A Assay (SAMDI mass spectrometry demethylase assay)
Type: biochemical
Details: N-terminal His-tagged KDM4A 1-350; class symbols; read-out: 4A IC50
Experimental: N-terminal His-tagged KDM4A^1-350 was purchased from BPS Biosciences. Peptides were synthesized by BioPeptide and all other reagents were purchased from Sigma-Aldrich at the highest level of purity possible. Assays were performed in a 50 μL volume in 384-well V-bottom polypropylene microplates (Greiner) at 25° C. Optimized 1× assay buffer was 50 mM HEPES (pH=8.0), 100 μM sodium ascorbate, 20 mM NaCl, 10 μM ammonium iron sulfate, 1 mM tris(2-carboxyethyl)phosphine (TCEP), 0.002% Tween-20, and 0.005% BSG. For compound screening, 35 μL of KDM4A^1-350 (final concentration, f.c.=5 nM) was added using a Multidrop Combi and preincubated with 1 μL of test compound (f.c.=10 μM) for 30 minutes and subsequently 15 μL of peptide with the following sequence NH2-ARTKQTAR(Kme2)STGGKAPRKQLA(K-Ahx-Biotin)-amide (f.c.=600 nM) and 2-oxoglutarate (f.c.=5 μM) was added by Multidrop Combi to begin the reaction. Reactions proceeded for 120 minutes and were stopped by the addition of 5 μL of formic acid (f.c.=0.5%) using a Multidrop Combi and then analyzed by SAMDI Tech Inc.
SAMDI Tech analyzed all reactions using self-assembled monoloayer desorption/ionization technology as previously described (Gerard-Levin Z A, Scholle M D, Eisenberg A H, et al.: High-throughput screening of small molecule libraries using SAMDI mass spectrometry. ACS Comb Sci 2011; 13:347-350). Briefly, a 2 μL sample of the stopped demethylase reactions were transferred to a SAMDI array coated with 384 biotin-neutravidin spots using a 384-channel pipet station. The SAMDI arrays were incubated for 1 h in a humidified chamber, followed by washing of the surface with deionized ultra-filtered water (DIUF) and drying under nitrogen. A matrix of 30 mg/ml 2′,4′,6′-Trihydroxyacetophenone monohydrate (THAP) in acetone was applied using a TPP Mosquito 1.2 μL tip by dispensing 50 nL on each of the 384 spots on the array. SAMDI-MS was run using acquisition method ReflectorPositiveUTX. The % conversion of substrate to product was calculated using the AUC of the substrate and product peptide peaks.
An IC50 value was determined by contacting various concentrations of a test compound with one of the KDM4A, KDM4C or KDMSC enzyme constructs and plotting a dose-response curve which associates the amount of inhibition of the enzyme relative to the concentration of the test compound. From the curve, the IC50 value (which represents the concentration of the test compound necessary to inhibit maximal enzymatic activity by 50%) was determined. Additionally, the slope of the linear range of the plotted curve, which indicates the speed with which the curve rises between the minimum and maximum, was calculated.

IC50	Structure (SMILES)
10 to 100 µM	COC(=O)c1ccncc1Nc1cn(C2CCN(C(C)C)CC2)nc1C [Compound 101, methyl 3-((1-(1-isopropylpiperidin-4-yl)-3-methyl-1H-pyrazol-4-yl)amino)isonicotinate]
1 to 10 µM	O=C(O)c1ccncc1Nc1nn(C2CCOCC2)cc1-c1ccccc1 [Compound 72, 3-((4-phenyl-1-(tetrahydro-2H-pyran-4-yl)-1H-pyrazol-3-yl)amino)isonicotinic acid]
1 to 10 µM	O=C(O)c1ccncc1Nc1c(-c2ccc(F)cc2)cnn1CCN1CCC(F)(F)CC1 [Compound 46, 3-((1-(2-(4,4-difluoropiperidin-1-yl)ethyl)-4-(4-fluorophenyl)-1H-pyrazol-5-yl)amino) isonicotinic acid]
0.001 to 0.1 µM	CNC(=O)c1cccc(-n2ncc(Nc3cnccc3C(=O)O)c2C)c1 [Compound 59, 3-((5-methyl-1-(3-(methylcarbamoyl)phenyl)-1H-pyrazol-4-yl)amino) isonicotinic acid]
0.1 to 1 µM	Cc1nn(C2CCCNCC2)cc1Nc1cnccc1C(=O)O (single isomer, unassigned) [Compound 116]
10 to 100 µM	O=C(O)c1ccncc1Nc1c(-c2ccccc2)cnn1CCN1CCC(F)(F)CC1 [Compound 15, 3-((1-(2-(4,4-difluoropiperidin-1-yl)ethyl)-4-phenyl-1H-pyrazol-5-yl)amino)isonicotinic acid]

Reference: patent publication US20170291890A1 (Epizyme, Inc., priority 2014, published 2017)
